This passage reports DC50 and EC50 results from patent US20250100996A1, “HETEROCYCLOALKYL AND HETEROARYL COMPOUNDS AND PHARMACEUTICAL COMPOSITIONS THAT MODULATE IKZF2” (Plexium, Inc., priority 2021, published 2025).

Structures are written as SMILES.

One assay deals with T1, IKZF2 (Helios) (Homo sapiens, UniProt Q9UKS7).
T1 construct: Leu-Asp junction (codons ctcgac before the linker); mScarlet (behind P2A) (C, cleaved yes); expressed in transfected cells
The assay is described as follows: IKZF2 reporter degradation assay (HEK 293T IKZF2-mNeonGreen reporter cell line). Format: cell-based. Conditions: HEK 293T IKZF2-mNeonGreen reporter, 24 hours incubation. The source says:
(§1) Polycistronic plasmids were constructed for the mammalian expression of fluorescent reporter fusions of human transcription factors IKZF1 (Ikaros), IKZF2 (Helios), and IKZF3 (Aiolos). The respective protein sequences had their C-terminal end joined to a GGGGS linker repeated three times followed by mNeonGreen, P2A sequence, and mScarlet. The DNA sequences of the open reading frames are as follows:
(§2) IKZF1, IKZF2, and IKZF3 constructs were cloned into the UCOE Hygromycin expression vectors (Millipore Sigma). Reporter constructs were transfected using cationic lipid reagents into adherent HEK 293T cells and stable integrants were selected by treatment with 200 μg/mL hygromycin B. Clonal populations were obtained from the population of stable integrants either by limiting dilution or fluorescence activated cell sorting.
(§3) The clonal stable cell lines were maintained under constant 200 μg/mL hygromycin B selection while being passaged for use in the degradation assays. […] The fluorescence intensity of the IKZF1/2/3-mNeonGreen (FITC channel) and mScarlet (PE channel) reporters were routinely analyzed by flow cytometry to confirm consistent expression levels between experiments.
(§4) The IKZF1/IKZF2/IKZF3 degradation assays were carried out by harvesting the HEK 293T reporter cell lines and resuspending the cells in media formulated for reduced background fluorescence (FluoroBrite; Thermo Fisher). The respective cell lines were seeded at a density of 4000 cells/well into black-walled 384-well optical grade assay tissue culture plates. The cells were incubated overnight at 37° C. to allow for attachment to the assay plate. Dilutions of the compounds were prepared in DMSO from 10 mM compound stocks. The assay plates were treated with appropriate concentrations of the compounds by dispensing the DMSO dilutions in quadruplicate wells with an upper limit of 0.5% final DMSO.
(§5) After 24 hours incubation with the compounds, the assay plates were imaged on an ImageXpress Pico microscopy system (cells maintained at 37° C. during imaging) to obtain the fluorescent readouts. The assay plates were imaged in the FITC and Tetramethylrhodamine (TRITC) channels to obtain the mNeonGreen fluorescence intensity (reporter degradation data) and mScarlet fluorescence intensity (for cell segmentation). 293T-IKZF1 and 293T-IKZF3 reporter cell lines were imaged with exposures of 500 milliseconds (ms) for both FITC and TRITC channels, while the 293T-IKZF2 reporter cell line was imaged with exposures of 1000 ms for FITC and 1250 ms for TRITC. The resulting data was analyzed with Cell Reporter Xpress software using the 2-channel cell scoring analysis with a “percent positive” readout. The TRITC channel was selected for the “nuclei” segmentation with a threshold of 20 while the FITC channel was selected for the “Marker 1” segmentation and a threshold of 100 for the IKZF1 and IKZF3 reporter lines. […] The minimum segmentation width was set to 6 micrometers and the maximum segmentation width was set to 15 micrometers for all cell lines. The DC50 calculations were determined by regression to best fit four-parameter logistic curves using GraphPad Prism.

The target in a further assay is T2, IKZF3 (Aiolos) (Homo sapiens, UniProt Q9UKT9).
T2 construct: Leu-Asp junction (codons ctcgac before the linker); mScarlet (behind P2A) (C, cleaved yes); expressed in transfected cells
T2 sequence (Q96SW2 whole entry partner): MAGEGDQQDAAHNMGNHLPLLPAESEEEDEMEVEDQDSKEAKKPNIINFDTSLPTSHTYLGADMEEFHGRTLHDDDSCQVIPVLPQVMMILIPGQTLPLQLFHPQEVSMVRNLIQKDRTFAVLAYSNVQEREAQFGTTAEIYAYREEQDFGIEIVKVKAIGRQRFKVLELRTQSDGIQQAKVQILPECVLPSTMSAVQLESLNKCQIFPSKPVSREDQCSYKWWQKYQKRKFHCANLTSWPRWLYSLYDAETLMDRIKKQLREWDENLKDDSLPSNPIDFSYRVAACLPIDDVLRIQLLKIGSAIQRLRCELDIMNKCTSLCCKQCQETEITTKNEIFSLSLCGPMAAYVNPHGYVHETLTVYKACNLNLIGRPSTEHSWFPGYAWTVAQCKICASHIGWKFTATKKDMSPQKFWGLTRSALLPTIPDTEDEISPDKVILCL
T2 sequence (Q16531 whole entry partner): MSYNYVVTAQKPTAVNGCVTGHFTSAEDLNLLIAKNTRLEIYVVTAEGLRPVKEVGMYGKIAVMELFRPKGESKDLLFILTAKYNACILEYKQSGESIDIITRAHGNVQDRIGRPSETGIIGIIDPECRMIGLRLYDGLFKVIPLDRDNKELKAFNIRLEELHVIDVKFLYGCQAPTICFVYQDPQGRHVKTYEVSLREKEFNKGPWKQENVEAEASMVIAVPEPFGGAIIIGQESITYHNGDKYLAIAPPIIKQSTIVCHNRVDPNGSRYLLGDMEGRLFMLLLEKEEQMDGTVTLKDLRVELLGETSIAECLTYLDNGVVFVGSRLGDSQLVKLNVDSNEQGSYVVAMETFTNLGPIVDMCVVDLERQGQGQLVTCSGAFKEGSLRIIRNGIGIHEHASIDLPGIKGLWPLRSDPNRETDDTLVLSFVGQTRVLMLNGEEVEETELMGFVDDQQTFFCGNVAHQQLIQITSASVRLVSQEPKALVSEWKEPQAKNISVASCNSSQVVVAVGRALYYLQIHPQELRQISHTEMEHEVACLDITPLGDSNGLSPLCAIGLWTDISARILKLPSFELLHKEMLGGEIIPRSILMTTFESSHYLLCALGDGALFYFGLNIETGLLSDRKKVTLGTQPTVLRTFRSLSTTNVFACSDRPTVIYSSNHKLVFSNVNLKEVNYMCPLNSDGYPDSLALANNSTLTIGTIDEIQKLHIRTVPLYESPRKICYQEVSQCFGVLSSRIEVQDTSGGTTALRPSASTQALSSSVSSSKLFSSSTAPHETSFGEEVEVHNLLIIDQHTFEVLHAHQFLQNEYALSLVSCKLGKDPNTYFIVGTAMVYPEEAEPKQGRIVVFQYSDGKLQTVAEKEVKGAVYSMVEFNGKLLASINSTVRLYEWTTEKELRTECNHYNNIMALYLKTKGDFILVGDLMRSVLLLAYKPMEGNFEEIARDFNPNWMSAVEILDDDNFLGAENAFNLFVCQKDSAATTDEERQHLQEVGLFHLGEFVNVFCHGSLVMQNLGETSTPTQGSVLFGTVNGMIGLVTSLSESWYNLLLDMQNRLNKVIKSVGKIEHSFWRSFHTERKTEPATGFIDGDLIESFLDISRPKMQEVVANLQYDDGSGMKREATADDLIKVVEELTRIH
T2 sequence (Q9UKT9 whole entry): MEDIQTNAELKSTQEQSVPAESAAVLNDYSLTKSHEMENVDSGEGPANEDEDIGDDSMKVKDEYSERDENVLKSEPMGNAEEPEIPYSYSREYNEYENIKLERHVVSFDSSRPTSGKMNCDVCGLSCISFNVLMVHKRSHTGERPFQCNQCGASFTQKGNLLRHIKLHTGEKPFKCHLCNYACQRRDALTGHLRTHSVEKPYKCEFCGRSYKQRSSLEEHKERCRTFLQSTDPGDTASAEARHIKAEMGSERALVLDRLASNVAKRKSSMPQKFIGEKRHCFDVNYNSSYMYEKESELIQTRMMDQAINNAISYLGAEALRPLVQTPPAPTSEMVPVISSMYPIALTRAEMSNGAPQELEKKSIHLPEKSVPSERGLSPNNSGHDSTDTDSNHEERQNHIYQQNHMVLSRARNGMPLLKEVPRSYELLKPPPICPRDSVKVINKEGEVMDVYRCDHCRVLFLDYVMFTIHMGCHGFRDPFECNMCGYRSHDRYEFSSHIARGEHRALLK
The assay is described as follows: IKZF3 reporter degradation assay (HEK 293T IKZF3-mNeonGreen reporter cell line). Format: cell-based. Conditions: HEK 293T IKZF3-mNeonGreen reporter, 24 hours incubation.
From the text: as §1, §2, §3, §4, §5

In assay [1] the target is T3, human E3 ligase component cereblon (CRBN) (Homo sapiens, UniProt Q96SW2).
T3 construct: host or cells: HEK293T
T3 sequence (Q96SW2 whole entry): as the sequence (Q96SW2 whole entry partner) above
T3 sequence (Q16531 whole entry partner): as the sequence (Q16531 whole entry partner) above
Nature of the assay: Cereblon (CRBN) target engagement, NanoBRET TE Intracellular E3 Ligase Assay in transfected HEK-293T cells. The note with it: read-out: CRBN Binding EC50. On the procedure:
HEK293T cells were harvested ca. 75% confluent with trypsin and plated (500,000 cells/well) in a 6-well tissue culture plate in 2 mL of Dulbecco's Modified Eagle Medium (DMEM)^+10% Fetal Bovine Serum (FBS) and incubated overnight at 37° C.
The NanoLuc-CRBN fusion vector (Nluc-CRBN; Promega) contains the coding region of human E3 ligase component cereblon (CRBN) fused to the C-terminus of the NanoLuc luciferase coding region. A mixture of 10 ng Nluc-CRBN and 990 ng DDB1 Expression Vector (Promega) was added to 125 μL Opti-Minimum Essential Medium (Opti-MEM™; Thermo Fisher) along with […] P3000 reagent (Thermo Fisher) in a 1.5 mL epppendorf tube. This solution was added to Lipofectamine 3000 transfection reagent (5 μL; Thermo Fisher) in Opti-MEM (125 μL), mixed well, and incubated for 15 minutes at room temperature. The transfection mixture was added dropwise to cells and incubated overnight at 37° C., 5% CO2. Following transfection, cells were washed once with PBS, and trypsin (250 μL) was added and incubated 30-45 see to dislodge cells. Complete media (2 mL) was added to resuspend cells to form a single cell suspension. Cells were centrifuged at 320×g for 5 min at room temperature, the supernatant was removed, and the cell pellet resuspended in Opti-MEM (3 mL; wash step repeated ×2). After final resuspension in 5 mL Opti-MEM, cells were counted and resuspended at 200,000 cells/mL in Opti-MEM.
Cereblon target engagement was monitored by Bioluminescence Resonance Energy Transfer (BRET) in transfected HEK-293T cells using the NanoBRET TE Intracellular E3 Ligase Assay (Promega). Briefly, 384-well plates (white opaque plates, Corning 3574, low binding surface) were seeded with transfected HEK-293T cells (38 μL/well). 2 μL of 10 μM CRBN tracer (diluted 1:5 in Tracer Dilution Buffer) was added to each well. Plates were centrifuged at 320×g for 1 min at room temperature. Test compounds were added in a 11-point dilution series (typically 10 μM to 100 pM) using a TECAN D300e Digital Dispenser. Plates were shaken for 2 minutes on a microplate shaker to mix compounds. Plates were centrifuged at 320×g for 1 min at room temperature, and subsequently incubated for 2 hours at 37° C.
After incubation, plates were allowed to cool to room temperature for 15 minutes. 20 μL of 3× Complete NanoBRET™ Nano-Glo® Substrate plus Inhibitor Solution (Promega, 1:166 Substrate and 1:500 dilution of Extracellular NanoLuc® Inhibitor diluted in Opti-MEM) were added to each well. Plates were incubated with shaking at room temperature for 3 minutes covered with foil. Plates were read on a CLARIOstar microplate reader (BMG LabTech), measuring at 450 nm (donor emission) and 610 nm (acceptor emission). The IC50 values were determined by regression to best fit four-parameter logistic curves using GraphPad Prism.
(Bioluminescence resonance energy transfer reports proximity on the nanometre scale.)

T1 sequence (Q9UKS7 whole entry): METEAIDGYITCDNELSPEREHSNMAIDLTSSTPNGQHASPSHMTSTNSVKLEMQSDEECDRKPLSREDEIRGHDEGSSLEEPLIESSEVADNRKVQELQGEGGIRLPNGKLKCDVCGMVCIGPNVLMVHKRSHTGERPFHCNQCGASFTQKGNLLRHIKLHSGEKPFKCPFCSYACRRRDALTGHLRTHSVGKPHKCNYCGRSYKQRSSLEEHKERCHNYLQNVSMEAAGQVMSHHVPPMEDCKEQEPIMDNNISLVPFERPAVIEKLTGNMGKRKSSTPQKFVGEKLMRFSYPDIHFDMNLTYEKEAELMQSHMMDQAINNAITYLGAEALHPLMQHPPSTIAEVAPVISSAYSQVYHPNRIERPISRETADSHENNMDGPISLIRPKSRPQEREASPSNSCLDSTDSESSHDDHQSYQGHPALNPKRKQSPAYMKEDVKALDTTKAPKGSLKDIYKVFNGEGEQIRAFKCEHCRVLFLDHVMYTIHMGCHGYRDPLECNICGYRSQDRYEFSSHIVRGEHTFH
T1 sequence (Q96SW2 whole entry, further chain): as the sequence (Q96SW2 whole entry partner) above
T1 sequence (Q16531 whole entry partner): as the sequence (Q16531 whole entry partner) above

The term DC50 denotes the concentration at which degradation of the target reaches its halfway point. Broadly, the EC50 is the concentration that produces a half-maximal response. As to `O=C1NC(=O)C2(N3Cc4cc(OC5CCCC5N5CC(c6ccncc6)C5)ccc4C3=O)CC1C2` (centres unmarked) [Compound 148-B, 1-(1-oxo-5-((2-(3-(pyridin-4-yl)azetidin-1-yl)cyclopentyl)oxy)isoindolin-2-yl)-3-azabicyclo[3.1.1]heptane-2,4-dione], the 50% degradation concentration (DC50) on IKZF2 (Helios) and on IKZF3 (Aiolos) was greater than 30000 nM in each case. For the same molecule, the EC50 in assay [1] was greater than 10000 nM.

Consider `O=C1CCC(N2Cc3cc(OC4CCCC4N4CC(c5ccc(C(F)(F)F)nc5)C4)ccc3C2=O)C(=O)N1` (centres unmarked) [Compound 141-B, 3-(1-oxo-5-((2-(3-(6-(trifluoromethyl)pyridin-3-yl)azetidin-1-yl)cyclopentyl)oxy)isoindolin-2-yl)piperidine-2,6-dione], for which the DC50 at IKZF2 (Helios) and on IKZF3 (Aiolos) was greater than 30000 nM in each case. For the same molecule, in assay [1], the EC50 is 37 nM.

On to `N#Cc1cc(C2CN([C@H]3CCCC[C@@H]3Oc3ccc4c(c3)CN(C3CCC(=O)NC3=O)C4=O)C2)ccn1` (mixture of isomers) [Compound 180-B, Rac-4-(1-((trans)-2-((2-(2,6-dioxopiperidin-3-yl)-1-oxoisoindolin-5-yl)oxy)cyclohexyl)azetidin-3-yl)picolinonitrile], for which the DC50 at IKZF2 (Helios) and at IKZF3 (Aiolos) was greater than 30000 nM in each case. For the same molecule, the EC50 in assay [1] worked out at 41 nM.

As for `O=C1CCC(N2Cc3cc(OC4CCCCC4N4CC(c5cncc(C(F)(F)F)c5)C4)ccc3C2=O)C(=O)N1` (centres unmarked) [Compound 178-B, 3-(1-oxo-5-((2-(3-(5-(trifluoromethyl)pyridin-3-yl)azetidin-1-yl)cyclohexyl)oxy)isoindolin-2-yl)piperidine-2,6-dione], the half-maximal degradation concentration (DC50) at IKZF2 (Helios) and on IKZF3 (Aiolos) was greater than 30000 nM throughout. The EC50 in assay [1] was determined as 39 nM.

For `O=C1CCC(N2Cc3cc(O[C@@H]4CCCC[C@@H]4N4CC(c5ncc(Br)cn5)C4)ccc3C2=O)C(=O)N1` (mixture of isomers) [Compound 138-B, Rac-3-(5-(((cis)-2-(3-(5-bromopyrimidin-2-yl)azetidin-1-yl)cyclohexyl)oxy)-1-oxoisoindolin-2-yl)piperidine-2,6-dione], the DC50 at IKZF2 (Helios) and at IKZF3 (Aiolos) was greater than 30000 nM each time. In assay [1], the EC50 was 5 nM.

Regarding `O=C1CCC(N2Cc3cc(O[C@H]4CCCC[C@@H]4N4CC(c5ncncc5Cl)C4)ccc3C2=O)C(=O)N1` (mixture of isomers) [Compound 140-B, Rac-3-(5-(((trans)-2-(3-(5-chloropyrimidin-4-yl)azetidin-1-yl)cyclohexyl)oxy)-1-oxoisoindolin-2-yl)piperidine-2,6-dione], the DC50 at IKZF2 (Helios) and on IKZF3 (Aiolos) was greater than 30000 nM throughout. Also, the EC50 in assay [1] was found to be 34 nM.

With `O=C1CCC(N2Cc3cc(O[C@H]4CCCC[C@H]4N4CC(c5ccc(Cl)cn5)C4)ccc3C2=O)C(=O)N1` (single isomer, unassigned) [Compound 97-B], the 50% degradation concentration (DC50) at IKZF2 (Helios) is greater than 30000 nM. The EC50 in assay [1] was 11 nM.

For the molecule `O=C1CCC(N2Cc3cc(O[C@H]4CCCC[C@H]4N4CC(c5ccc6ccccc6n5)C4)ccc3C2=O)C(=O)N1` (stereo partly drawn) [Compound 88-B, 3-(1-oxo-5-(((1S,2R)-2-(3-(quinolin-2-yl)azetidin-1-yl)cyclohexyl)oxy)isoindolin-2-yl)piperidine-2,6-dione], the 50% degradation concentration (DC50) at IKZF2 (Helios) and at IKZF3 (Aiolos) was greater than 30000 nM in each case. Also, the EC50 in assay [1] stood at 10 nM.

Consider `O=C1CCC(N2Cc3cc(O[C@H]4CCCC[C@H]4N4CC(c5cncc(Cl)c5)C4)ccc3C2=O)C(=O)N1` (single isomer, unassigned) [Compound 114-B], for which the DC50 on IKZF2 (Helios) is greater than 30000 nM. Moreover, the EC50 in assay [1] is 20 nM.

Take `O=C1CCC(N2Cc3cc(O[C@H]4CCCC[C@H]4N4CC(c5ncc(C(F)(F)F)cn5)C4)ccc3C2=O)C(=O)N1` (single isomer, unassigned) [Compound 122-B]: the DC50 on IKZF2 (Helios) was greater than 30000 nM. In assay [1], the half-maximal effective concentration (EC50) was 13 nM.

As to `O=C1CCC(N2Cc3cc(O[C@@H]4CCCC[C@H]4N4CC(c5ncc(C6CC6)cn5)C4)ccc3C2=O)C(=O)N1` (single isomer, unassigned) [Compound 132-B], the DC50 at IKZF2 (Helios) was greater than 30000 nM. Besides, in assay [1], the half-maximal effective concentration (EC50) is 3 nM.

Consider `O=C1CCC(N2Cc3cc(O[C@@H]4CCCC[C@H]4N4CC(c5ncc(Br)cn5)C4)ccc3C2=O)C(=O)N1` (single isomer, unassigned) [Compound 106-B], for which, on IKZF2 (Helios), the DC50 is greater than 30000 nM. Also, the EC50 in assay [1] was found to be 6 nM.

For `O=C1CCC(N2Cc3cc(O[C@@H]4CCCC[C@H]4N4CC(c5ccc(C(F)(F)F)nc5)C4)ccc3C2=O)C(=O)N1` (single isomer, unassigned) [Compound 124-B], the DC50 at IKZF2 (Helios) and at IKZF3 (Aiolos) was greater than 30000 nM throughout. The concentration giving a half-maximal response (EC50) in assay [1] worked out at 29 nM.

`O=C1CCC(N2Cc3cc(O[C@H]4CCCC[C@@H]4N4CC(c5ncc(Cl)cn5)C4)ccc3C2=O)C(=O)N1` (single isomer, unassigned) [Compound 110-B] returned a DC50 at IKZF2 (Helios) greater than 30000 nM. For the same molecule, the 50% effective concentration (EC50) in assay [1] amounted to 32 nM.

For the molecule `O=C1CCC(N2Cc3cc(OC4CCCC4N4CC(c5cncc(C(F)(F)F)c5)C4)ccc3C2=O)C(=O)N1` (centres unmarked) [Compound 154-B, 3-(1-oxo-5-((2-(3-(5-(trifluoromethyl)pyridin-3-yl)azetidin-1-yl)cyclopentyl)oxy)isoindolin-2-yl)piperidine-2,6-dione], the DC50 at IKZF2 (Helios) and at IKZF3 (Aiolos) was greater than 30000 nM each time. Further, the half-maximal effective concentration (EC50) in assay [1] came to 56 nM.

For the molecule `O=C1CCC(N2Cc3cc(O[C@H]4CCCC[C@H]4N4CC(c5ccc(Cl)cn5)C4)ccc3C2=O)C(=O)N1` (mixture of isomers) [Compound 164-B, Rac-3-(5-(((cis)-2-(3-(5-chloropyridin-2-yl)azetidin-1-yl)cyclohexyl)oxy)-1-oxoisoindolin-2-yl)piperidine-2,6-dione], the DC50 at IKZF2 (Helios) and on IKZF3 (Aiolos) was greater than 30000 nM throughout. The EC50 in assay [1] was determined as 15 nM.

In the case of `O=C1CCC(N2Cc3cc(O[C@@H]4CCCC[C@@H]4N4CC(c5ccc(Cl)cn5)C4)ccc3C2=O)C(=O)N1` (single isomer, unassigned) [Compound 101-B], the DC50 on IKZF2 (Helios) was greater than 30000 nM. In assay [1], the EC50 worked out at 11 nM.
